Among the data in a melting point compilation (Tetko et al.; mined from patent text by program, amines drawn as free bases though some values may be those of a salt) are melting point values, retold here.

With `CN(CCc1c[nH]c2ccccc12)C(=O)CCCC(=O)O`, the melting point was in the range of 125 to 126 °C.
`COc1cc(C(C)C)c2c(c1)S(=O)(=O)N(COC(=O)C1CCC(=O)N1)C2=O` (stereo unspecified): the melting point fell in the range of 159 to 160 °C.
The figure for `CCCCNc1cc(C=NO)cc(S(N)(=O)=O)c1Oc1ccccc1` is 226 to 228 °C.
Molecule `CC(Oc1ccc2oc3cc(Cl)ccc3c2c1)C(=O)O` (stereo unspecified) gave a melting point of 170 to 172 °C.
Molecule `O=C(COc1cccnc1)c1ccccc1` yielded a melting point of 81 to 82 °C.
Regarding `CSCC(=O)Nc1cc(SCC(C)C)ccc1[N+](=O)[O-]`, the melting point is 73 to 74 °C.
The molecule `COc1ccc(-c2nc(C(N)=O)oc2-c2ccc(OC)cc2)cc1` had a melting point of 133 to 135 °C.
The figure for `C[C@@H](N(CC(=O)O)C(=O)c1ccc(C(F)(F)F)cc1)[C@](O)(Cn1cncn1)c1ccc(F)cc1F` is 132 to 135 °C; for `CC(=O)NCC1CN(c2ccc3c(c2)CC(CO)N3C=O)C(=O)O1` (stereo unspecified) it is 132 to 136 °C; for `CCOC(=O)c1c(C(F)(F)F)nc(C(F)(F)Cl)c(C(=O)OC)c1NN1CCCC1` it is 101 to 103 °C.
`O=C(O)CCCc1ccc(F)cc1F` showed a melting point of 45 to 47 °C.
The molecule `CCc1ccc2nnc(C(=O)Oc3ccccc3)cc2c1` registered a melting point of 143 to 145 °C.
In turn, `O=C(NCCN1CCCC1)c1ccc(OCc2ccc(-c3ccccc3)cc2)nc1` registered a melting point of 153 to 157 °C.
Take `CC1CCC(C(C)C)C(OC(=O)CCC(=O)OC2CC(C)CCC2C(C)C)C1` (single isomer, unassigned; (-)): the melting point is 61 to 62 °C.
Consider `CC(C)NCCOc1ccc(O)cc1`, for which the melting point is 78 to 80 °C.
In turn, `COc1cc(N(C)C)ccc1-c1nc2c(N[C@H]3[C@@H](C(N)=O)[C@@H]4C=C[C@H]3C4)ccnc2[nH]1` showed a melting point of 185 to 190 °C.
On to `O=C(O)CCCCc1c[nH]c2ccccc12`, for which the melting point fell in the range of 80 to 83 °C.
Under `COC(=O)c1ccc(C=C(C)[N+](=O)[O-])c(Cl)c1` stands 74 to 77 °C; under `O=C1NC[C@@H](c2ccccc2)O1`, 86 to 87 °C.
Under `CN(C)c1ccc(C(=O)Nc2ccccc2CCC2CCCCN2C)cc1` (stereo unspecified) stands 115 to 116 °C.
Molecule `Cc1cc(CC(=O)O)cc2c1[nH]c1ccccc12` returned a melting point of 177 to 179 °C.
In turn, `COc1ccccc1CNc1ccc2c(C(=N)NO)cccc2n1` yielded a melting point of 161 °C.
Under `N#CCON=C(CCN1CCN(c2ccccn2)CC1)c1ccccc1` stands 127 to 128 °C; under `O=C1c2ccccc2C(=O)c2sc(-c3cccs3)nc21`, more than 260 °C.
For `COc1cc(O)c(-c2ccccc2)nn1`, the melting point was 204 to 209 °C.
`CCCn1c(=O)c2[nH]c(C3CCC(C(=O)OC)C3)nc2n(CCC)c1=O` (stereo unspecified) yielded a melting point of 188 to 194 °C.
Under `CCCc1nccn1S(=O)(=O)c1c[nH]cn1` stands 163 to 164 °C; under `CC(C)(C)OC(=O)NC12CCC1CNC2` (stereo unspecified), 113 to 116 °C.
`Brc1cc(C#Cc2ccccc2)c(Br)cc1C#Cc1ccccc1`: the melting point was in the range of 155 to 158 °C.
The molecule `Cc1cc2n[nH]c(=O)n2nc1-c1cccc([N+](=O)[O-])c1` registered a melting point of more than 300 °C.
`CCOC(=O)CSc1nc(Cl)cc(Nc2ccc(OC)cc2)n1` showed a melting point of 96 to 97.5 °C.
The figure for `CCCC(=O)Cc1ccc(C(=O)Nc2ccc3cc(CN4CCCCC4)cnc3c2C)cc1` is 164 to 165 °C; for `CNC(=O)CC1c2cc(C#N)ccc2OC(C)(C)C1O` (stereo unspecified) it is 141 to 142 °C; for `COc1ccc(CNc2nc(SC)ncc2C(=O)Nc2cncnc2)cc1Cl` it is 238 to 240 °C.
`Cn1nc(-c2ccc(OC(F)(F)F)cc2)cc1CO` came in with a melting point of 91 to 93 °C.
Consider `CC(=O)OC(CF)c1sccc1S(N)(=O)=O` (stereo unspecified), for which the melting point is 97 to 98 °C.
`CCN(CC)Cc1ccc(C(N)=O)o1` had a melting point of 164 to 165 °C.
`Nc1sc2c(c1C(=O)c1ccc(Cl)cc1)CCN(C(=O)OCc1ccccc1)C2` registered a melting point of 60 to 62 °C.
The molecule `NC(N)=Nc1nc(-c2csc(CNC(=O)CO)n2)cs1` returned a melting point of 239 °C.
The figure for `OCCC1c2ccccc2C(O)=NN1c1cccc(C(F)(F)F)c1` (stereo unspecified) is 183 to 184 °C.
On to `CCCc1cc(Cl)c2oc(Cc3ccccc3)c(C)c2c1O`, for which the melting point lay within 69 to 70 °C.
`Nc1c2c(nc3ccccc13)CCc1cn(Cc3ccccc3)nc1-2` returned a melting point of 206 to 207 °C.
In turn, `CC1=CC(=O)C(C(C)C)=C(CCNC(=O)C(F)(F)F)C1=O` came in with a melting point of 94 to 95 °C.
`CNc1ccc(Cl)c(-c2cc(=O)c3c(O)cc(O)c(C4CCN(C)C4CO)c3o2)c1` (stereo unspecified) showed a melting point of 208 to 210 °C.
In turn, `Cn1c(=O)c(-c2ccc(Cl)cc2Cl)cc2c3cc(-c4c[nH]nc4N)ccc3n(C)c21` showed a melting point of 240 to 245 °C.
Under `NC(=O)C=Cc1cccc(Cl)c1` stands 180 °C.
As to `CC(C)=CC(=O)OC(COc1ccc(C(=O)c2ccccc2)c(O)c1)COc1ccc(C(=O)c2ccccc2)c(O)c1`, the melting point is 148 to 150 °C.
Turning to `Cn1cc(-c2ccc(C(=O)N3Cc4cccn4Cc4ccccc43)cn2)cn1`, the melting point was in the range of 173 to 175 °C.
For the molecule `COc1ccc(-n2nnc(-c3ccc(F)cc3F)c2N)cc1`, the melting point fell in the range of 152 to 156 °C.
Take `Cc1ccc(S(=O)(=O)n2cc(Br)c(C)c2C=O)cc1`: the melting point lay within 152 to 155 °C.
In turn, `COC(=O)c1cc(Cl)cc(OC)c1O` showed a melting point of 105 °C.
Molecule `COC(=O)c1ccc(C(=O)NN)cn1` registered a melting point of 177 to 180 °C.
As to `COc1ccc(C(=O)O)cc1Oc1ccc(C(F)(F)F)cc1Cl`, the melting point was in the range of 162 to 165 °C.
Regarding `CCOC(=O)CCNC(=O)CN1CC(=O)N(C)c2ccc(NC(=O)NCc3ccccc3)cc2C1=O`, the melting point was in the range of 100 to 102 °C.
With `CCCCNCCNC(=O)Nc1ccccc1C(=O)NCC1CCN(C(c2ccccc2)c2ccccc2)CC1`, the melting point was in the range of 148 to 150 °C.
`CC(C)=CCOC(=O)c1cnn(-c2c(Cl)cc(Cl)cc2Cl)c1N` registered a melting point of 102 to 105 °C.
In the case of `O=C1[C@H]2CCC[C@H]2N(C(=O)CNS(=O)(=O)c2ccccc2)c2ccccc2N1Cc1ccccc1` (relative stereo), the melting point fell in the range of 185 to 187 °C.
With `CC(C)(C)OC(=O)[C@@H]1CCCN2C(=O)CC[C@H](NC(=O)c3ccccc3)C(=O)N12`, the melting point was in the range of 74 to 76 °C.
For the molecule `CN(C(=O)OC(C)(C)C)C1CC=C(c2c[nH]c3cc([N+](=O)[O-])ccc23)CC1` (stereo unspecified), the melting point was 208 to 210 °C.
The figure for `CC(=O)NC1CCc2c(C)cc(C)c(O)c21` (stereo unspecified) is 131 to 132 °C; for `NCC(=O)N(C(=O)C(O)c1ccccc1)c1ccccc1` (stereo unspecified) it is 148 to 151 °C; for `CCCOc1ccc(S(C)(=O)=O)cc1-c1nc(OC)c2[nH]nc(CC)c2n1` it is 137 to 139 °C.
Consider `O=C1CC2(CCN(Cc3ccccc3)CC2)C(=O)N1OCc1ccccc1`, for which the melting point was 146 to 152 °C.
The molecule `COC(=O)C(=Cc1ccc2c(c1)OCO2)C(=O)c1cccc(OCc2ccccc2)c1` showed a melting point of 116 to 118 °C.
`COc1ccc(N2CCN(c3c(C)c(C)c4c(c3C)C(O)(c3ccoc3)C(C)(C)O4)CC2)cc1` (stereo unspecified) yielded a melting point of 148 to 149 °C.
The figure for `O=C1CN(c2ccc(Cl)cc2)C(=O)N1S(=O)(=O)c1ccc(Cl)cc1` is 239 to 240 °C.
The figure for `BrCCCCCOc1ccc2c(c1)OCO2` is 54 to 57 °C.
`O=S(=O)(CC(Cl)(Cl)Cl)c1cc(Cl)ccc1Cl` yielded a melting point of 96 °C.
`COc1ccc(S(=O)(=O)C(CC(=O)NO)Cc2ccc(Oc3ccccc3)cc2)cc1` (stereo unspecified) displayed a melting point of 65 to 70 °C.
The figure for `CC(C)(C)c1csc(NC(=O)Nc2ccc(N3CCN(C(=O)Nc4ccc(OCCO)cc4C(F)(F)F)CC3)cc2)n1` is 130 to 132 °C; for `CN(C)c1ccccc1CC(=O)N1C[C@@H]2C(=O)CCC(c3ccccc3)(c3ccccc3)[C@@H]2C1` it is 150 °C; for `CCC(CC)c1nc(-c2ccncc2)c(-c2ccc(Cl)cc2)n1C` it is 100 to 102 °C.
Under `CC1(C)C(C(=O)O)C12C=CC=C2` (stereo unspecified) stands 126 to 129 °C.
As to `O=C(O)c1cn(CCc2ccc(O)cc2)c2cc(C3CC3)nn2c1=O`, the melting point lay in the range of 265 to 270 °C.
`CC(C)(CO)CCCCN1C(=O)c2ccccc2C1=O` came in with a melting point of 74.8 to 75 °C.
In turn, `O=C1O[C@@H](CO)CN1c1ccc(-n2ccnn2)c(F)c1` yielded a melting point of 179 to 180 °C.
For the molecule `CN1CCN(c2ccc3c4c(cccc24)C(=O)N(O)C3=O)CC1`, the melting point was 326 to 329 °C.
The molecule `C=C(C)C(=O)Nc1cccc(O)c1` returned a melting point of 171 to 173 °C.
Molecule `Cc1ccnc(Sc2cnc(N)s2)n1` registered a melting point of 158 to 159 °C.
The molecule `CC(C)(C)C(NC(=O)Nc1ccccc1F)NC(=O)c1ccc(Cl)cc1` (stereo unspecified) registered a melting point of 229 to 230 °C.
`CCOC(=O)c1cccc(Cn2cnc3cnccc32)c1` showed a melting point of 119 to 120 °C.
In turn, `CCCc1nn(-c2ccc(C(F)(F)F)cn2)cc1CCCOc1c(Br)cccc1CC(=O)O` came in with a melting point of 145 to 146 °C.
Molecule `O=C(O)C1CSC(c2ccncc2)N1` (stereo unspecified) showed a melting point of 171 to 173 °C.
As to `O=C(O)c1cc(F)c(F)c(Br)c1Cl`, the melting point is 138 to 140 °C.
`O=C(CC1CCCOC1=O)c1ccccc1` (stereo unspecified) had a melting point of 93 to 94 °C.
The molecule `CC(Oc1ncn(-c2ccc(Br)cc2)n1)C(=O)O` (stereo unspecified) gave a melting point of 195 to 197 °C.
In turn, `O=C(Nc1ccccc1)ONC1=Nc2ccc(Cl)cc2C(c2ccccc2F)=NC1` came in with a melting point of 126 to 128 °C.
In turn, `CC(=O)Nc1ccc(N2CCN(Cc3ncc(-c4ccccc4)o3)CC2)cc1` showed a melting point of 196 to 197 °C.
In turn, `COc1ccc2nc(COc3ccc(CC(SC)C(N)=O)cc3)n(C)c2c1` (stereo unspecified) came in with a melting point of 188 to 190 °C.
As to `CCOC(=O)c1c(C)cc2c(c1C)c(=O)n(-c1ccccc1C(F)(F)F)c(=O)n2CCN1CCN(C(=O)C=Cc2ccccc2)CC1`, the melting point was 119 to 120 °C.
With `CCOC(=O)N(CCCOCCOCCCN(C(=O)OCC)C1CC(C)(C)NC(C)(C)C1)C1CC(C)(C)NC(C)(C)C1`, the melting point lay in the range of 92 to 93 °C.
